Assays:
MDSCs = assay: Inhibition of MDSC chemotaxis (Transwell, tumor-conditioned medium); assay type: cell-based, mouse; conditions: Mus musculus, read-out: Suppression Rate (MDSC chemotaxis)
Method: Hepa1-6 mouse hepatocellular carcinoma cells were uniformly seeded into 6-well plates. After cells reached confluence, supernatant was aspirated, and 1-1.5 mL fresh medium was added to each well. Following 24 h culture, supernatant was collected, centrifuged at 1600 rpm for 5 min, aspirated, and filtered through a 0.22 μm membrane to obtain tumor-conditioned medium for subsequent use. […] Under sterile conditions, remove the tibia, cut both ends of the bone, and aspirate the bone marrow into a 1 mL syringe. Repeat flushing into a 15 mL centrifuge tube. Centrifuge at 1600 rpm for 5 min to collect bone marrow cells. Wash twice with 1×PBS. […] Count cells, adjust density to 1×10^6 cells/mL, and uniformly seed into 24-well plates at 300 μL per well. […] Centrifuge at 1600 rpm for 5 min, remove supernatant, resuspend cells in 300 μL fresh medium, and place into Transwell chambers. […] Co-culture for 24 h.

[1] = 8 h; cited from earlier work
CCR2 mRNA = assay: Inhibition of CCR2 mRNA level in MDSCs; assay type: cell-based; conditions: Mus musculus, 2 h, read-out: Suppression Rate (inhibition of CCR2 mRNA levels)
Method: Under sterile conditions, the tibia was removed, both ends of the bone were cut, and bone marrow was repeatedly flushed into a 15 mL centrifuge tube using a 1 mL syringe filled with culture medium. Centrifuge at 1600 rpm for 5 min to collect bone marrow cells. […] Count cells and adjust density to 1×10^6 cells/mL in complete medium. Seed cells uniformly into 6-well plates at 2 mL per well. […] After incubation, collect cells into centrifuge tubes, centrifuge at 1600 rpm for 5 min, wash once with 1×PBS, and add 500 μL RNA extraction reagent to each tube. After centrifugation to obtain the pellet, add 20 μL DEPC-treated water to each tube to dissolve the pellet. Determine RNA concentration and reverse transcribe to cDNA. Add the cDNA, primers, and […] to a 96-well plate. Centrifuge at 4000 rpm for 5 min, then place in a PCR instrument for detection.

[2] = Safety evaluation, mouse survival rate (30 days oral); assay type: in vivo, C57BL/6 mice; conditions: for survival at 720 h: mouse, in vivo, female, oral
Text: The Normal group received an equal volume of solvent (saline).

[3] = tested on: IgE and inflammatory markers of AD mice; assay: MC903-induced atopic dermatitis, oral administration: serum IgE and ear mRNA of inflammatory markers; assay type: in vivo, mouse; set-up: scale not given here
Method: Except for the Normal group, all other groups underwent AD modeling: 20 μL of MC903 solution (also known as calcipotriol, purchased from Shanghai Yuanye Biotechnology Co., Ltd., used for inducing atopic models) was applied to each mouse's ears once daily for 14 consecutive days to induce the atopic dermatitis model. […] Measure ear thickness changes every 2 days using an electronic caliper before modeling and after treatment initiation.

[4] = tested on: serum creatinine and blood urea nitrogen; assay: Diabetic nephropathy (STZ/HFD), serum creatinine and BUN; assay type: in vivo, C57/BL6J mice; conditions: 8 weeks
Method: Experimental animals: C57/BL6J mice, male, 12 weeks old, purchased from GemPharmatech LLC. Production license number: SCXK(Su)2023-0009. […] Animals were acclimated for 7 days before use in experiments.
Administer streptozotocin (STZ, 50 mg/kg) via intraperitoneal injection for 5 consecutive days. After 72 hours, select mice with fasting blood glucose levels exceeding 16.7 mmol/L as model mice. […] Model mice were fed a high-fat diet (HFD) providing 60% of energy from fat for 8 weeks. After 8 weeks, gavage administration commenced.
Specimen Collection: One hour after the last drug administration, enucleate the eyeball to collect blood. Allow blood to stand at room temperature for 2 hours, then centrifuge at 3000 rpm for 20 minutes. Aspirate the serum, aliquot it, and store at −70° C. for future use. After blood collection, euthanize the mice by cervical dislocation. Open the abdominal cavity, remove the kidneys, and dissect away the perirenal fat and capsule. Store the tissue at −70° C. for future use.
Serum Creatinine (Scr) and Blood Urea Nitrogen (BUN) Assay: For each sample, 10 μL of serum was used for creatinine and urea level detection. Samples were added sequentially strictly following the kit instructions. After incubation at 37° C., absorbance values were measured using an enzyme-linked immunosorbent assay (ELISA) reader. The concentration levels of each indicator were calculated based on the standard curve.

serum TC and TG = assay: HFD-induced atherosclerosis, serum total cholesterol and triglyceride; assay type: in vivo, APOE−/− mice; set-up: Serum TC / Serum TG: unit not given here; conditions: for Serum TC / Serum TG: 8 weeks
Method: Experimental animals: C57BL and APOE^−/− mice, male, 8 weeks old, purchased from GemPharmatech LLC. Production license number: SCXK(Su)2023-0009. […] They were acclimated for 7 days before use in experiments.
Normal group (C57BL), model group (HFD/APOE^−/−), positive control drug VTX3232 (10 mg/kg) group, compound 103 (0.3, 1, 3, 10 and 30 mg/kg) group, with 6 mice per group. Oral administration was performed continuously for 8 weeks.
Allow blood to stand at room temperature for 2 hours, then centrifuge at 3000 rpm for 20 minutes. Aspirate the serum, aliquot it, and store at −70° C. for future use. After blood collection, euthanize mice by cervical dislocation. Open the abdominal cavity, remove heart and aorta. […] Store remaining tissues at −80° C. for future use.
Serum Total Cholesterol (TC) and Triglyceride (TG) Assay: For each sample, 10 μL of serum was used for […]. Samples were added sequentially strictly according to the kit instructions, incubated at 37° C., and measured for absorbance values using an enzyme-linked immunosorbent assay (ELISA) reader. The concentration levels of each indicator were calculated based on the standard curve.

## C=C1C(=O)O[C@@H]2[C@H]3C(C)=CC[C@@]34O[C@@]4(C)CC[C@@H]12 [Arg, Arglabin, reference compound]
MDSCs
  inhibition at 1 µM: 42.5%
  inhibition at 10 µM: 73.2%
[1]
  degradation rate in gastric fluid: 50%
CCR2 mRNA
  inhibition at 1 µM: 22.3%
  inhibition at 10 µM: 69.7%

## CN(C)C[C@@H]1C(=O)O[C@H]2[C@H]1CC[C@@]1(C)C[C@]13CC[C@@](C)(O)[C@H]23 [Compound 20]
[2]; 500 and 1000 mg/kg oral
  survival rate: no significant effect
[2]; 500 mg/kg
  survival at 720 h: 100%
[2]; 1000 mg/kg
  survival at 720 h: 100%
[3]; 0.1 mg/kg oral
  I14 mRNA expression, ear: 2.77 ± 0.16
  I113 mRNA expression, ear: 2.04 ± 0.20
  I131 mRNA expression, ear: 2.64 ± 0.22
  TSLP mRNA expression, ear: 3.38 ± 0.51
  Tnf mRNA expression, ear: 4.04 ± 0.50
[3]; 1 mg/kg oral
  I14 mRNA expression, ear: 2.65 ± 0.22
  I113 mRNA expression, ear: 1.82 ± 0.21
  TSLP mRNA expression, ear: 2.36 ± 0.32
  Tnf mRNA expression, ear: 2.63 ± 0.55
[3]; 10 mg/kg oral
  I14 mRNA expression, ear: 2.09 ± 0.26
  I113 mRNA expression, ear: 1.66 ± 0.30
  I131 mRNA expression, ear: 1.68 ± 0.13
  TSLP mRNA expression, ear: 1.33 ± 0.13
  Tnf mRNA expression, ear: 1.22 ± 0.18

## CC1=C2CC[C@@](C)(OC(=O)N3CCCC3)[C@@H]2[C@H]2OC(=O)[C@@H](CN3CCCC3)[C@@H]2CC1 [Compound 103]
[4]; 1 mg/kg gavage
  BUN: 54.34 ± 10.67
  Scr (serum creatinine): 23.48 ± 6.73
[4]; 10 mg/kg gavage
  BUN: 38.10 ± 2.88
  Scr (serum creatinine): 14.90 ± 8.06
Serum TC and TG; 0.3 mg/kg, oral
  Serum TC: 18.86 ± 1.44
  Serum TG: 2.69 ± 0.86
Serum TC and TG; 1 mg/kg, oral
  Serum TC: 18.71 ± 1.45
  Serum TG: 2.87 ± 0.42
Serum TC and TG; 3 mg/kg, oral
  Serum TC: 17.44 ± 1.83
  Serum TG: 2.56 ± 0.93
Serum TC and TG; 10 mg/kg, oral
  Serum TC: 17.75 ± 1.62
  Serum TG: 3.01 ± 0.89
Serum TC and TG; 30 mg/kg oral
  Serum TC: 17.65 ± 1.35
  Serum TG: 2.91 ± 0.59
Serum TC and TG; 0.3, 1, 3, 10, 30 mg/kg oral
  serum TC and TG levels compared with the model group: no significant changes
